Values quoted from earlier work as cited in PubChem BioAssay AID1259409 (Chemical Carcinogenesis Research Information System (CCRIS), 2018).

Tested on: rodent chemically induced tumor inhibition, incidence and multiplicity
Assay: CCRIS tumor inhibitor studies
Conditions: Route [Inhibitor]: ORAL, Species: RAT, Promoter: NONE USED

SMILES | tumour outcome (control, treated, inhibition, significance) (Carcinogen: L-AZASERINE, 115-02-6, Dose [Inhibitor]: 1 MMOL/KG DIET DAILY FOR 91 D FOLLOWED BY 0.5 MMOL/KG DIET DAILY FOR 246 D DURING A 358 D PERIOD STARTING 1 WK AFTER COM, Strain/Sex: WISTAR-LEWIS/FEMALE, Target Tissue: Type of Lesion: PANCREAS: ADENOMA, Dose [Carcinogen]: 10 MG/KG BW 1/WK FOR 15 WK) | tumour outcome (control, treated, inhibition, significance) (Carcinogen: L-AZASERINE, 115-02-6, Dose [Inhibitor]: 1 MMOL/KG DIET DAILY FOR 91 D FOLLOWED BY 0.5 MMOL/KG DIET DAILY FOR 246 D DURING A 358 D PERIOD STARTING 1 WK AFTER COM, Strain/Sex: WISTAR-LEWIS/FEMALE, Target Tissue: Type of Lesion: PANCREAS: CARCINOMA IN SITU, Dose [Carcinogen]: 10 MG/KG BW 1/WK FOR 15 WK) | tumour outcome (control, treated, inhibition, significance) (Carcinogen: L-AZASERINE, 115-02-6, Dose [Inhibitor]: 1 MMOL/KG DIET DAILY FOR 91 D FOLLOWED BY 0.5 MMOL/KG DIET DAILY FOR 246 D DURING A 358 D PERIOD STARTING 1 WK AFTER COM, Strain/Sex: WISTAR-LEWIS/FEMALE, Target Tissue: Type of Lesion: PANCREAS: CARCINOMA, Dose [Carcinogen]: 10 MG/KG BW 1/WK FOR 15 WK) | tumour outcome (control, treated, inhibition, significance) (Carcinogen: L-AZASERINE, 115-02-6, Dose [Inhibitor]: 1 MMOL/KG DIET DAILY FOR 91 D FOLLOWED BY 0.5 MMOL/KG DIET DAILY FOR 246 D DURING A 358 D PERIOD STARTING 1 WK AFTER COM, Strain/Sex: WISTAR-LEWIS/FEMALE, Target Tissue: Type of Lesion: PANCREAS: NEOPLASM, Dose [Carcinogen]: 10 MG/KG BW 1/WK FOR 15 WK STARTING 15 WK) | tumour outcome (control, treated, inhibition, significance) (Carcinogen: L-AZASERINE, 115-02-6, Dose [Inhibitor]: 1 MMOL/KG DIET DAILY FOR 91 D FOLLOWED BY 0.5 MMOL/KG DIET DAILY FOR 246 D DURING A 358 D PERIOD STARTING 1 WK AFTER COM, Strain/Sex: WISTAR-LEWIS/MALE, Target Tissue: Type of Lesion: PANCREAS: ADENOMA, Dose [Carcinogen]: 10 MG/KG BW 1/WK FOR 15 WK) | tumour outcome (control, treated, inhibition, significance) (Carcinogen: L-AZASERINE, 115-02-6, Dose [Inhibitor]: 1 MMOL/KG DIET DAILY FOR 91 D FOLLOWED BY 0.5 MMOL/KG DIET DAILY FOR 246 D DURING A 358 D PERIOD STARTING 1 WK AFTER COM, Strain/Sex: WISTAR-LEWIS/MALE, Target Tissue: Type of Lesion: PANCREAS: CARCINOMA IN SITU, Dose [Carcinogen]: 10 MG/KG BW 1/WK FOR 15 WK) | tumour outcome (control, treated, inhibition, significance) (Carcinogen: L-AZASERINE, 115-02-6, Dose [Inhibitor]: 1 MMOL/KG DIET DAILY FOR 91 D FOLLOWED BY 0.5 MMOL/KG DIET DAILY FOR 246 D DURING A 358 D PERIOD STARTING 1 WK AFTER COM, Strain/Sex: WISTAR-LEWIS/MALE, Target Tissue: Type of Lesion: PANCREAS: CARCINOMA, Dose [Carcinogen]: 10 MG/KG BW 1/WK FOR 15 WK) | tumour outcome (control, treated, inhibition, significance) (Carcinogen: L-AZASERINE, 115-02-6, Dose [Inhibitor]: 1 MMOL/KG DIET DAILY FOR 91 D FOLLOWED BY 0.5 MMOL/KG DIET DAILY FOR 246 D DURING A 358 D PERIOD STARTING 1 WK AFTER COM, Strain/Sex: WISTAR-LEWIS/MALE, Target Tissue: Type of Lesion: PANCREAS: NEOPLASM, Dose [Carcinogen]: 10 MG/KG BW 1/WK FOR 15 WK) | tumour outcome (control, treated, inhibition, significance) (Carcinogen: N-BUTYL-N-(4-HYDROXYBUTYL)NITROSAMINE, 3817-11-6, Dose [Inhibitor]: 0.002% DIET DAILY FOR 7 WK FOLLOWED BY 1 WK OF NO TREATMENT THEN 5 WK OF 0.001% DIET DAILY AND NO FURTHER TREATMENT THRO, Strain/Sex: F344/MALE, Target Tissue: Type of Lesion: URINARY BLADDER: PAPILLOMA, Dose [Carcinogen]: 0.01% IN DRINKING WATER FOR 4 WK) | tumour outcome (control, treated, inhibition, significance) (Carcinogen: N-METHYL-N-NITROSOUREA, 684-93-5, Dose [Inhibitor]: 0, 3.3 UG/KG OF DIET FOR 147 D (STUDY DURATION: 150 D), Strain/Sex: SPRAGUE-DAWLEY/FEMALE, Target Tissue: Type of Lesion: MAMMARY GLAND: ADENOCARCINOMA, Dose [Carcinogen]: 50 MG/KG BW ONCE 3 D BEFORE INITIAL INHIBITOR DOSE) | tumour outcome (control, treated, inhibition, significance) (Carcinogen: N-METHYL-N-NITROSOUREA, 684-93-5, Dose [Inhibitor]: 0, 10 UG/KG OF DIET FOR 147 D (STUDY DURATION: 150 D), Strain/Sex: SPRAGUE-DAWLEY/FEMALE, Target Tissue: Type of Lesion: MAMMARY GLAND: ADENOCARCINOMA, Dose [Carcinogen]: 50 MG/KG BW ONCE 3 D BEFORE INITIAL INHIBITOR DOSE)
CC1=C(/C=C/C(C)=C/C=C/C(C)=C/C(=O)Nc2ccc(C(=O)O)cc2)C(C)(C)CCC1 | 35%, 38%, -9%, not significant | 48%, 8%, 83%, not significant | 4%, 0%, 100%, not significant | 87%, 46%, 47%, p<0.05 | 29%, 16%, 45%, not significant | 58%, 64%, -10%, not significant | 8%, 16%, -100%, not significant | 95%, 96%, -1%, not significant |  |  | 
C=C1CC[C@H](O)C/C1=C/C=C1\CCC[C@]2(C)[C@@H]([C@H](C)CCCC(C)C)CC[C@@H]12 |  |  |  |  |  |  |  |  | 33%, 41%, -24%, not significant | 25/25 (100%), 25/25 (100%), 0%, not significant | 25/25 (100%), 25/25 (100%), 0%, not significant
